Tests used:
Assay type in all cases: cell-based
alpha2B receptor = target: T1, alpha2B receptor (Homo sapiens, UniProt P18089); test: RSAT assay (Receptor Selection and Amplification Technology), alpha2B; conditions: for EC50: RSAT, NIH-3T3 cells cotransfected with receptor and Gq/i5, ND = not determinable at concentrations less than 10 micromolar, read-out: Alpha 2B EC50; for Emax: maximal effect relative to standard full agonist brimonidine (UK14304), read-out: Alpha 2B intrinsic activity (IA), in parentheses
T1 construct: expressed in transfected cells; host or cells: NIH-3T3 cells
T1 sequence (P18089 1-450): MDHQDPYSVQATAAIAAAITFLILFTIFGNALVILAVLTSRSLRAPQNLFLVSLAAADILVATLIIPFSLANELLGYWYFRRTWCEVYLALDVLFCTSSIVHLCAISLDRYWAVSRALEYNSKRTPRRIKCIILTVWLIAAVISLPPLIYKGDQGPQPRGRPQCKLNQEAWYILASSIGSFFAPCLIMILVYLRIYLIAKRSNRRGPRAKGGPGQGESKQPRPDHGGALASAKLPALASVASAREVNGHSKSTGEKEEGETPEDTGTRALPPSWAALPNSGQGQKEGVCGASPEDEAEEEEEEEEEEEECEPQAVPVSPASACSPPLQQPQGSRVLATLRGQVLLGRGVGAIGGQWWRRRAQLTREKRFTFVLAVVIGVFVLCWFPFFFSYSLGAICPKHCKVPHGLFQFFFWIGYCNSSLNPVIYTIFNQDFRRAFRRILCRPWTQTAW
Procedure: (§1) Receptor Selection and Amplification Technology (RSAT) Assay
(§2) The RSAT assay measures a receptor-mediated loss of contact inhibition that results in selective proliferation of receptor-containing cells in a mixed population of confluent cells. The increase in cell number is assessed with an appropriate transfected marker gene such as β-galactosidase, the activity of which can be easily measured in a 96-well format. Receptors that activate the G protein, Gq, elicit this response. Alpha2 receptors, which normally couple to Gi, activate the RSAT response when coexpressed with a hybrid Gq protein that has a Gi receptor recognition domain, called Gq/i5.
NIH-3T3 cells are plated at a density of 2×10^6 cells in 15 cm dishes and maintained in Dulbecco's modified Eagle's medium supplemented with 10% calf serum. One day later, cells are cotransfected by calcium phosphate precipitation with mammalian expression plasmids encoding p-SV-β-galactosidase (5-10 μg), receptor (1-2 μg) and G protein (1-2 μg). 40 μg salmon sperm DNA may also be included in the transfection mixture. Fresh media is added on the following day and 1-2 days later, cells are harvested and frozen in 50 assay aliquots. Cells are thawed and 100 μl added to 100 μl aliquots of various concentrations of drugs in triplicate in 96-well dishes. Incubations continue 72-96 hr at 37° C. After washing with phosphate-buffered saline, β-galactosidase enzyme activity is determined by adding 200 μl of the chromogenic substrate (consisting of 3.5 mM o-nitrophenyl-β-D-galactopyranoside and 0.5% nonidet P-40 in phosphate buffered saline), incubating overnight at 30° C. and measuring optical density at 420 nm. The absorbance is a measure of enzyme activity, which depends on cell number and reflects a receptor-mediated cell proliferation. The efficacy or intrinsic activity is calculated as a ratio of the maximal effect of the drug to the maximal effect of a standard full agonist for each receptor subtype. Brimonidine, also called UK14304, the chemical structure of which is shown below, is used as the standard agonist for the alpha2A, alpha2B and alpha2C receptors. The EC50 is the concentration at which the drug effect is half of its maximal effect.
EC50 values are nanomolar. ND stands for “not determinable” at concentrations less than 10 micromolar. IA stands for “intrinsic activity.”

alpha2C receptor = target: T2, alpha2C receptor (Homo sapiens, UniProt P18825); test: RSAT assay (Receptor Selection and Amplification Technology), alpha2C; conditions: maximal effect relative to standard full agonist brimonidine (UK14304); read-out: Alpha 2C intrinsic activity (IA), in parentheses
T2 construct: expressed in transfected cells; host or cells: NIH-3T3 cells
T2 sequence (P18825 1-462): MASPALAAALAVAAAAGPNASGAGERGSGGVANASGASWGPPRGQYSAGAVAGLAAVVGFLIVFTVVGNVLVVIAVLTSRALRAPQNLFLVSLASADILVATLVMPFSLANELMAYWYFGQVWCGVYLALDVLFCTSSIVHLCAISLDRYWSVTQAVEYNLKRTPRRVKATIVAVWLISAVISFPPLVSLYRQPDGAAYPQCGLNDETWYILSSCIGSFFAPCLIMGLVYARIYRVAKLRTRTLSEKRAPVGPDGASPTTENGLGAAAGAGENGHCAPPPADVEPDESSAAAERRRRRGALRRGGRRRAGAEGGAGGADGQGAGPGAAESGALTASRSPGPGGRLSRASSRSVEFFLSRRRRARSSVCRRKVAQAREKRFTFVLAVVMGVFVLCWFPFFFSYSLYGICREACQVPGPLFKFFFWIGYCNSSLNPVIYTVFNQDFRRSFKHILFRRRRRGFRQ
Procedure: as §1, §2
(§3) NIH-3T3 cells are plated at a density of 2×10^6 cells in 15 cm dishes and maintained in Dulbecco's modified Eagle's medium supplemented with 10% calf serum. […] After washing with phosphate-buffered saline, β-galactosidase enzyme activity is determined by adding 200 μl of the chromogenic substrate (consisting of 3.5 mM o-nitrophenyl-β-D-galactopyranoside and 0.5% nonidet P-40 in phosphate buffered saline), incubating overnight at 30° C. and measuring optical density at 420 nm. The absorbance is a measure of enzyme activity, which depends on cell number and reflects a receptor-mediated cell proliferation. […]

alpha2A receptor = target: T3, alpha2A receptor (Homo sapiens, UniProt P08913); test: RSAT assay (Receptor Selection and Amplification Technology), alpha2A; conditions: read-out: Alpha 2A intrinsic activity (IA), in parentheses
T3 construct: expressed in transfected cells; host or cells: NIH-3T3 cells
T3 sequence (P08913 1-465): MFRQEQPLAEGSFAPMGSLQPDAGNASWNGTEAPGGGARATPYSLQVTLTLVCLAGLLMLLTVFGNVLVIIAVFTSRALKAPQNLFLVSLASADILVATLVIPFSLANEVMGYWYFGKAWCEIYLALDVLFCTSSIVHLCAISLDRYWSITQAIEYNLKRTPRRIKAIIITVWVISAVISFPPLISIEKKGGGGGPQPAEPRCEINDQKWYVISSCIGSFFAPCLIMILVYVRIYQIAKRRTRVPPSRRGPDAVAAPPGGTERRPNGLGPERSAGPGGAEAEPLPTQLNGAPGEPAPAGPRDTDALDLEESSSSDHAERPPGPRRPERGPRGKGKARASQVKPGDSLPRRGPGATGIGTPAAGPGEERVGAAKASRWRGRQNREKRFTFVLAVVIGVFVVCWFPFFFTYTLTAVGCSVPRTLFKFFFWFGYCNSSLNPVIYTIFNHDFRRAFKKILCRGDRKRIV
Procedure: as §1, §2, §3

Compound	EC50 (alpha2B receptor)	Emax (alpha2B receptor)	Emax (alpha2C receptor)	Emax (alpha2A receptor)
c1cnc2c(n1)CCCC2NC1=NCCO1 (centres unmarked)	0.271 µM	86%	27%	16%
c1cnc2c(c1)CCCC2NC1=NCCO1 (centres unmarked)	0.545 µM	67%	22%	3%

— US8486969B2, “Therapeutic compounds” (Allergan, Inc., priority 2007, dated 2013)
